Here are results for eight compounds from patent publication US20090234014A1, “Naphthalene-Disulfonamides Useful for the Treatment of Inflammation” (priority 2005, published 2009).

Structures are written as SMILES.

One assay has as its target T1, mPGES-1 (Homo sapiens, UniProt O14684).
T1 construct: made in house; host or cells: E. coli (membrane fraction)
T1 sequence (O14684 1-152): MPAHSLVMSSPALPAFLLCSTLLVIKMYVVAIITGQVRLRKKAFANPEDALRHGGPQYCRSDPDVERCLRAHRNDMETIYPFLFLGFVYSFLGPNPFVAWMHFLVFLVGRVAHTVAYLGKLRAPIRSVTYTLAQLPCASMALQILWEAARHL
Description: mPGES-1 assay: conversion of PGH2 to PGE2, PGE2 measured by HPLC. Format: biochemical. The conditions noted are these: mPGES-1 expressed in E. coli, membrane fraction; 25 min preincubation with inhibitor, 60 s with PGH2, room temperature; read-out: IC50 values. The protocol: In the assay mPGES-1 catalyses the reaction where the substrate PGH2 is converted to PGE2. mPGES-1 is expressed in E. coli and the membrane fraction is dissolved in 20 mM NaPi-buffer pH 8.0 and stored at −80° C. In the assay mPGES-1 is dissolved in 0.1M KPi-buffer pH 7.35 with 2.5 mM glutathione. The stop solution consists of H2O/MeCN (7/3), containing FeCl2 (25 mM) and HCl (0.15 M). The assay is performed at room temperature in 96-well plates. Analysis of the amount of PGE2 is performed with reversed phase HPLC (Waters 2795 equipped with a 3.9×150 mm C18 column). The mobile phase consists of H2O/MeCN (7/3), containing TFA (0.056%), and absorbance is measured at 195 nm with a Waters 2487 UV-detector.
The following is added chronologically to each well: • 1. 100 μL mPGES-1 in KPi-buffer with glutathione. Total protein concentration: 0.02 mg/mL. • 2. 1 μL inhibitor in DMSO. Incubation of the plate at room temperature for 25 minutes. • 3. 4 μL of a 0.25 mM PGH2 solution. Incubation of the plate at room temperature for 60 seconds. • 4. 100 μL stop solution. • 180 μL per sample is analyzed with HPLC.
Turning to `Cc1cccc(C)c1NS(=O)(=O)c1cc(S(=O)(=O)Nc2c(C)cccc2C)c2ccccc2c1` [Example 11, N^1,N^3-di(2,6-xylyl)naphthalene-1,3-disulfonamide], the IC50 turned out to be 1700 nM.
`Cc1c(Cl)cccc1NS(=O)(=O)c1cc(S(=O)(=O)Nc2cccc(Cl)c2C)c2ccccc2c1` [Example 15, N^1,N^3-di(3-chloro-2-methylphenyl)naphthalene-1,3-disulfonamide]: the IC50 amounted to 1700 nM.
Still for that read-out and setting: the value for `Cc1cc(C)c(NS(=O)(=O)c2cc(S(=O)(=O)Nc3c(C)cc(C)cc3C)c3cc(O)ccc3c2)c(C)c1` [Example 3, N^1,N^3-di(mesityl)-7-hydroxynaphthalene-1,3-disulfonamide] was 1100 nM; that for `O=S(=O)(Nc1ccccc1C(F)(F)F)c1cc(S(=O)(=O)Nc2ccccc2C(F)(F)F)c2cc(O)ccc2c1` [Example 9, N^1,N^3-di(2-trifluoromethylphenyl)-7-hydroxynaphthalene-1,3-disulfonamide] was 4100 nM; that for `Cc1ccc(NS(=O)(=O)c2cc(S(=O)(=O)Nc3ccc(C)cc3)c3ccccc3c2)cc1` [Example 20, N^1,N^3-di(p-tolyl)naphthalene-1,3-disulfonamide] was 3700 nM.
In the case of `Cc1ccc(Cl)cc1NS(=O)(=O)c1cc(S(=O)(=O)Nc2cc(Cl)ccc2C)c2cc(O)ccc2c1` [Example 7, N^1,N^3-di(5-chloro-2-methylphenyl)-7-hydroxynaphthalene-1,3-disulfonamide], the IC50 turned out to be 1200 nM.
For `Cc1ccc(Cl)cc1NS(=O)(=O)c1cc(S(=O)(=O)Nc2cc(Cl)ccc2C)c2ccccc2c1` [Example 16, N^1,N^3-di(5-chloro-2-methylphenyl)naphthalene-1,3-disulfonamide], the IC50 is 1300 nM.

The same assay, now with this note: mPGES-1 expressed in E. coli, membrane fraction; stated as 10 μM or below; read-out: concentration exhibiting 50% inhibition of mPGES-1.
Regarding `O=S(=O)(Nc1ccccc1)c1cc(S(=O)(=O)Nc2ccccc2)c2cc(O)ccc2c1` [N^1,N^3-Diphenyl-7-hydroxynaphthalene-1,3-disulfonamide], the IC50 was ≤ 10000 nM.
